Legend:
large (Lg) crabgrass [1] = assay: Test A preemergence; assay type: in vivo, Digitaria sanguinalis
How it was run: (§1)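 Visual 0–100 rating (100 = complete control) taken about 10 d post-treatment relative to untreated checks. Preemergence: directed soil spray on sown loam/sand pots. Postemergence: seedlings 2–10 cm, 1–2 leaf. Non-phytotoxic solvent formulation with surfactant.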

velvetleaf [2] = assay: Test A preemergence; assay type: in vivo, Abutilon theophrasti
How it was run: as §1

wheat [3] = assay: Test A preemergence; assay type: in vivo, Triticum aestivum
How it was run: as §1

large (Lg) crabgrass [4] = assay: Test A postemergence; assay type: in vivo, Digitaria sanguinalis
How it was run: as §1

giant foxtail = assay: Test A postemergence; assay type: in vivo, Setaria faberii
How it was run: as §1

velvetleaf [5] = assay: Test A postemergence; assay type: in vivo, Abutilon theophrasti
How it was run: as §1

wheat [6] = assay: Test A postemergence; assay type: in vivo, Triticum aestivum
How it was run: as §1

rice = assay: Test B flooded paddy test; assay type: in vivo, Oryza sativa; conditions: Flood, 250 g ai/ha; 0 to 100 scale where 0 is no effect and 100 is complete control
How it was run: (§2)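 Plants were grown to the 2-leaf stage, then pots were flooded to 3 cm above the soil and compounds were applied directly into the paddy water. That depth was held throughout, and after 13 to 15 days in the greenhouse injury was rated visually against controls on a 0–100 scale (0 no effect, 100 complete control).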

Heteranthera limosa = assay: Test B flooded paddy test; assay type: in vivo; conditions: Flood, 250 g ai/ha; 0 to 100 scale where 0 is no effect and 100 is complete control
How it was run: as §2

lambsquarters = assay: Test C postemergence; assay type: in vivo, Chenopodium album; conditions: for Plant response rating (0 to 100), Lambsquarters: 0 is no effect, 100 is complete control; for Lambsquarters plant response rating: 31 g ai/ha; for Lambsquarters plant response rating / Plant response rating, Lambsquarters: scale 0 to 100 (0 no effect, 100 complete control)
How it was run: (§3)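 Preemergence: seeds sown in a loam soil–sand blend and sprayed with test chemical in a non-phytotoxic solvent mixture containing surfactant. Postemergence: plants at 2 to 18 cm (1- to 4-leaf stage) in peat-based medium, treated with the same formulation. Greenhouse 13 to 15 days, then visual rating 0 (no effect) to 100 (complete control).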

morningglory = assay: Test C postemergence; assay type: in vivo, Ipomoea coccinea; conditions: for Plant response rating (0 to 100), Morningglory: 0 is no effect, 100 is complete control; for Morningglory plant response rating: 31 g ai/ha; for Morningglory plant response rating / Plant response rating, Morningglory: scale 0 to 100 (0 no effect, 100 complete control)
How it was run: as §3

pigweed = assay: Test C postemergence; assay type: in vivo, Amaranthus retroflexus; conditions: for Plant response rating (0 to 100), Pigweed: 0 is no effect, 100 is complete control; for Pigweed plant response rating: 31 g ai/ha; for Pigweed plant response rating / Plant response rating, Pigweed: scale 0 to 100 (0 no effect, 100 complete control)
How it was run: as §3

soybean = assay: Test C postemergence; assay type: in vivo, Glycine max; conditions: for Plant response rating (0 to 100), Soybean: 0 is no effect, 100 is complete control; for Soybean plant response rating: 31 g ai/ha; for Soybean plant response rating / Plant response rating, Soybean: scale 0 to 100 (0 no effect, 100 complete control)
How it was run: as §3

oilseed rape = assay: Test C postemergence; assay type: in vivo, Brassica napus; conditions: for Plant response rating (0 to 100), Oilseed Rape: 0 is no effect, 100 is complete control; for Oilseed Rape plant response rating: 31 g ai/ha; for Oilseed Rape plant response rating / Plant response rating, Oilseed Rape: scale 0 to 100 (0 no effect, 100 complete control)
How it was run: as §3

kochia = assay: Test C postemergence; assay type: in vivo, Kochia scoparia; conditions: for Plant response rating (0 to 100), Kochia: 0 is no effect, 100 is complete control; for Kochia plant response rating: 31 g ai/ha; for Kochia plant response rating / Plant response rating, Kochia: scale 0 to 100 (0 no effect, 100 complete control)
How it was run: as §3

velvetleaf [7] = assay: Test C postemergence; assay type: in vivo, Abutilon theophrasti; conditions: for Plant response rating (0 to 100), Velvetleaf: 0 is no effect, 100 is complete control; for Velvetleaf plant response rating: 31 g ai/ha; for Velvetleaf plant response rating / Plant response rating, Velvetleaf: scale 0 to 100 (0 no effect, 100 complete control)
How it was run: as §3

[8] = 1000 g ai/ha, 0 to 100 scale, 0 no effect, 100 complete control, approx. 10 days
[9] = 1000 g ai/ha, 0 to 100 scale, 0 no effect, 100 complete control
[10] = postemergence, visual rating, 13 to 15 days
[11] = 125 g ai/ha, postemergence, visual rating
[12] = Postemergence, 62 g ai/ha, 13 to 15 days
[13] = 125 g ai/ha, 0 to 100 scale where 0 is no effect and 100 is complete control
[14] = 500 g ai/ha, 0 to 100 scale where 0 is no effect and 100 is complete control

Clc1cnc(Oc2ccccc2-n2cc(Br)nn2)nc1 [Compound 223]
Crabgrass, Large plant response rating (large (Lg) crabgrass [1]; [8]): 100 | Velvetleaf plant response rating (velvetleaf [2]; [8]): 100 | Wheat plant response rating (wheat [3]; [8]): 80 | Plant response rating, Crabgrass, Large (large (Lg) crabgrass [4]; [9]): 100 | Plant response rating, Foxtail, Giant (giant foxtail; [9]): 90 | Plant response rating, Velvetleaf (velvetleaf [5]; [9]): 100 | Plant response rating, Wheat (wheat [6]; [9]): 70 | Plant response rating, Rice (rice): 50 | Plant response rating, Ducksalad (Heteranthera limosa): 90 | Plant response rating (0 to 100), Lambsquarters (lambsquarters; 16 g ai/ha, postemergence): 60 | Lambsquarters plant response rating (lambsquarters; [10]): 75 | Plant response rating, Lambsquarters (lambsquarters; [11]): 95 | Plant response rating, Lambsquarters (lambsquarters; [12]): 75 | Plant response rating (0 to 100), Morningglory (morningglory; 16 g ai/ha, postemergence): 5 | Morningglory plant response rating (morningglory; [10]): 45 | Plant response rating, Morningglory (morningglory; [11]): 80 | Plant response rating, Morningglory (morningglory; [12]): 70 | Plant response rating (0 to 100), Pigweed (pigweed; 16 g ai/ha, postemergence): 70 | Pigweed plant response rating (pigweed; [10]): 70 | Plant response rating, Pigweed (pigweed; [11]): 90 | Plant response rating, Pigweed (pigweed; [12]): 80 | Plant response rating (0 to 100), Soybean (soybean; 16 g ai/ha, postemergence): 60 | Soybean plant response rating (soybean; [10]): 65 | Plant response rating, Soybean (soybean; [11]): 95 | Plant response rating, Soybean (soybean; [12]): 85 | Plant response rating (0 to 100), Oilseed Rape (oilseed rape; 16 g ai/ha, postemergence): 10 | Oilseed Rape plant response rating (oilseed rape; [10]): 50 | Plant response rating, Oilseed Rape (oilseed rape; [11]): 85 | Plant response rating, Oilseed Rape (oilseed rape; [12]): 80 | Plant response rating (0 to 100), Kochia (kochia; 16 g ai/ha, postemergence): 70 | Kochia plant response rating (kochia; [10]): 85 | Plant response rating, Kochia (kochia; [11]): 90 | Plant response rating, Kochia (kochia; [12]): 80 | Plant response rating (0 to 100), Velvetleaf (velvetleaf [7]; 16 g ai/ha, postemergence): 30 | Velvetleaf plant response rating (velvetleaf [7]; [10]): 55 | Plant response rating, Velvetleaf (velvetleaf [7]; [11]): 90 | Plant response rating, Velvetleaf (velvetleaf [7]; [12]): 80

O=Cc1cccc(Oc2ncc(I)cn2)c1-n1cc(Br)cn1 [Compound 172]
Plant response rating, Crabgrass, Large (large (Lg) crabgrass [1]; [13]): 0 | Crabgrass, Large plant response rating (large (Lg) crabgrass [1]; [14]): 30 | Velvetleaf plant response rating (0 to 100 scale) (velvetleaf [2]; 125 g ai/ha): 0 | Velvetleaf plant response rating (velvetleaf [2]; [14]): 0 | Wheat plant response rating (0 to 100 scale) (wheat [3]; 125 g ai/ha): 0 | Wheat plant response rating (wheat [3]; [14]): 0 | Crabgrass, Large plant response rating (large (Lg) crabgrass [4]; [13]): 20 | Plant response rating, Crabgrass, Large (large (Lg) crabgrass [4]; [14]): 30 | Foxtail, Giant plant response rating (giant foxtail; [13]): 0 | Plant response rating, Foxtail, Giant (giant foxtail; [14]): 20 | Velvetleaf plant response rating (velvetleaf [5]; [13]): 90 | Plant response rating, Velvetleaf (velvetleaf [5]; [14]): 100 | Wheat plant response rating (wheat [6]; [13]): 0 | Plant response rating, Wheat (wheat [6]; [14]): 0 | Plant response rating, Rice (rice): 0 | Plant response rating, Ducksalad (Heteranthera limosa): 0 | Plant response rating (0 to 100), Lambsquarters (lambsquarters; 8 g ai/ha, postemergence): 0 | Plant response rating (0 to 100), Lambsquarters (lambsquarters; 16 g ai/ha, postemergence): 0 | Lambsquarters plant response rating (lambsquarters; [10]): 0 | Plant response rating, Lambsquarters (lambsquarters; Postemergence, 62 g ai/ha): 0 | Plant response rating (0 to 100), Morningglory (morningglory; 8 g ai/ha, postemergence): 0 | Plant response rating (0 to 100), Morningglory (morningglory; 16 g ai/ha, postemergence): 0 | Morningglory plant response rating (morningglory; [10]): 20 | Plant response rating, Morningglory (morningglory; Postemergence, 62 g ai/ha): 10 | Plant response rating (0 to 100), Pigweed (pigweed; 8 g ai/ha, postemergence): 5 | Plant response rating (0 to 100), Pigweed (pigweed; 16 g ai/ha, postemergence): 10 | Pigweed plant response rating (pigweed; [10]): 10 | Plant response rating, Pigweed (pigweed; Postemergence, 62 g ai/ha): 5 | Plant response rating (0 to 100), Soybean (soybean; 8 g ai/ha, postemergence): 0 | Plant response rating (0 to 100), Soybean (soybean; 16 g ai/ha, postemergence): 0 | Soybean plant response rating (soybean; [10]): 0 | Plant response rating, Soybean (soybean; Postemergence, 62 g ai/ha): 5 | Plant response rating (0 to 100), Oilseed Rape (oilseed rape; 8 g ai/ha, postemergence): 0 | Plant response rating (0 to 100), Oilseed Rape (oilseed rape; 16 g ai/ha, postemergence): 0 | Oilseed Rape plant response rating (oilseed rape; [10]): 0 | Plant response rating, Oilseed Rape (oilseed rape; Postemergence, 62 g ai/ha): 0 | Plant response rating (0 to 100), Kochia (kochia; 8 g ai/ha, postemergence): 0 | Plant response rating (0 to 100), Kochia (kochia; 16 g ai/ha, postemergence): 0 | Kochia plant response rating (kochia; [10]): 0 | Plant response rating, Kochia (kochia; Postemergence, 62 g ai/ha): 30 | Plant response rating (0 to 100), Velvetleaf (velvetleaf [7]; 8 g ai/ha, postemergence): 5 | Plant response rating (0 to 100), Velvetleaf (velvetleaf [7]; 16 g ai/ha, postemergence): 5 | Velvetleaf plant response rating (velvetleaf [7]; [10]): 10 | Plant response rating, Velvetleaf (velvetleaf [7]; Postemergence, 62 g ai/ha): 10
